Results as given in EPA's ToxRefDB 2.

Assays:
rat [1] = conditions: Combined chronic toxicity/carcinogenicity, sprague dawley, Oral, Feed, dose end: 24 month
rat [2] = conditions: Prenatal developmental toxicity study, sprague dawley, Oral, Gavage/Intubation, dose end: 15 GD
dog [3] = conditions: Chronic toxicity, beagle, Oral, Capsule, dose end: 52 week
mouse [4] = conditions: Carcinogenicity, cd1, Oral, Feed, dose end: 18 month, group: systemic
rat [5] = conditions: Combined chronic toxicity/carcinogenicity, sprague dawley, Oral, [Not Specified], dose end: 104 week, group: systemic
mouse [6] = conditions: Carcinogenicity, cd1, Oral, Feed, dose end: 80 week, group: systemic
rat [7] = conditions: Multigenerational reproductive toxicity study, sprague dawley, Oral, Feed, dose end: 2 generation
rat [8] = conditions: Prenatal developmental toxicity study, sprague dawley, Oral, Gavage/Intubation, dose end: 16 GD
rat [9] = conditions: Subchronic oral toxicity in rodents, sprague dawley, Feed, dose end: 13 week, group: systemic
dog [10] = conditions: Subchronic oral toxicity in nonrodent, beagle, Capsule, dose end: 13 week, group: systemic
dog [11] = conditions: Chronic toxicity, beagle, Oral, Capsule, dose end: 52 week, group: systemic
[12] = group: cholinesterase, cholinesterase / cholinesterase / cholinesterase / plasma cholinesterase (che)
[13] = group: systemic, systemic / hematology / erythrocyte (rbc) count differential / erythrocyte (rbc) + systemic / hematology / hematocrit (hct) / hematocrit (…
[14] = group: developmental, developmental / developmental malformation / bone / incomplete ossification
[15] = group: developmental, developmental / developmental malformation / bone / incomplete ossification + developmental / developmental malformation / bone / …
[16] = group: maternal, systemic / in life observation / food consumption / food consumption + systemic / in life observation / body weight / body weight + systemic…
[17] = group: cholinesterase, cholinesterase / cholinesterase / cholinesterase / plasma cholinesterase (che) + cholinesterase / cholinesterase / cholinesterase / brain …
[18] = group: systemic, systemic / in life observation / clinical signs / tremors + systemic / in life observation / clinical signs / vomitting
[19] = systemic / in life observation / body weight / body weight + systemic / in life observation / food consumption / food consumption
[20] = systemic / pathology microscopic / liver / discolored
[21] = systemic / pathology microscopic / liver / discolored + systemic / clinical chemistry / cholesterol / cholesterol + systemic / in life …
[22] = systemic / in life observation / body weight / body weight gain + systemic / pathology microscopic / liver / inflammation
[23] = group: offspring, systemic / in life observation / body weight / offspring (pup) weight
[24] = group: parental, systemic / hematology / mean corpuscular (cell) volume (mcv) / mean corpuscular (cell) volume (mcv) + systemic / hematology / mean …
[25] = group: developmental, developmental / developmental malformation / bone / thickened + developmental / developmental malformation / bone / wavy
[26] = group: maternal, systemic / in life observation / clinical signs / abdominogenital staining + systemic / in life observation / clinical signs / discharge on …
[27] = systemic / clinical chemistry / alanine aminotransferase (alt/sgpt) / alanine aminotransferase (alt/sgpt) + systemic / clinical chemistry / …
[28] = systemic / in life observation / body weight / body weight gain + systemic / urinalysis / porphyrins / porphyrins
[29] = systemic / in life observation / body weight / body weight gain + systemic / urinalysis / porphyrins / porphyrins + systemic / hematology / …
[30] = systemic / urinalysis / porphyrins / porphyrins
[31] = systemic / urinalysis / porphyrins / porphyrins + systemic / organ weight / liver / absolute

Structure (SMILES): CCOP(=S)(OCC)SCSCC [Phorate]
- LEL (rat [1]; [12]): 0.05 mg/kg/day
- LOAEL (rat [1]; [12]): 0.05 mg/kg/day
- NEL (rat [1]; [12]): < 0.05 mg/kg/day
- NOAEL (rat [1]; [12]): < 0.05 mg/kg/day
- LEL (rat [1]; [13]): 0.3 mg/kg/day
- LOAEL (rat [1]; [13]): > 0.3 mg/kg/day
- NEL (rat [1]; [13]): 0.15 mg/kg/day
- NOAEL (rat [1]; [13]): ≥ 0.3 mg/kg/day
- LEL (rat [2]; [14]): 0.1 mg/kg/day
- NEL (rat [2]; [14]): < 0.1 mg/kg/day
- LOAEL (rat [2]; [15]): 0.4 mg/kg/day
- NOAEL (rat [2]; [15]): 0.3 mg/kg/day
- LOAEL (rat [2]; group: maternal, systemic / in life observation / food consumption / food consumption): 0.2 mg/kg/day
- LEL (rat [2]; [16]): 0.4 mg/kg/day
- NEL (rat [2]; [16]): 0.3 mg/kg/day
- NOAEL (rat [2]; [16]): 0.1 mg/kg/day
- LEL (dog [3]; [12]): 0.05 mg/kg/day
- LOAEL (dog [3]; [12]): 0.05 mg/kg/day
- NEL (dog [3]; [17]): 0.01 mg/kg/day
- NOAEL (dog [3]; [17]): 0.01 mg/kg/day
- LOAEL (dog [3]; group: systemic, systemic / in life observation / clinical signs / tremors + systemic / in life observation / body weight / body weight gain): 0.25 mg/kg/day
- NEL (dog [3]; [18]): 0.005 mg/kg/day
- NOAEL (dog [3]; [18]): 0.05 mg/kg/day
- LEL (dog [3]; group: systemic, systemic / in life observation / clinical signs / vomitting): 0.01 mg/kg/day
- LOAEL (mouse [4]; systemic / in life observation / body weight / body weight): 0.8 mg/kg/day
- LEL (mouse [4]; [19]): 0.8 mg/kg/day
- NEL (mouse [4]; [19]): 0.4 mg/kg/day
- NOAEL (mouse [4]; [19]): 0.4 mg/kg/day

Structure (SMILES): CCOC(=O)C(Cl)Cc1cc(-n2nc(C)n(C(F)F)c2=O)c(F)cc1Cl (centres undefined) [Carfentrazone-ethyl]
- LEL (rat [5]; [20]): 12 mg/kg/day
- LOAEL (rat [5]; [20]): 12 mg/kg/day
- NEL (rat [5]; [21]): 3 mg/kg/day
- NOAEL (rat [5]; [21]): 3 mg/kg/day
- LEL (mouse [6]; [22]): 10 mg/kg/day
- NEL (mouse [6]; [22]): < 10 mg/kg/day
- NOAEL (mouse [6]; systemic / in life observation / body weight / body weight gain + systemic / pathology microscopic / liver / inflammation + systemic / in …): 10 mg/kg/day
- LOAEL (mouse [6]; systemic / pathology microscopic / liver / inflammation + systemic / in life observation / mortality / mortality + systemic / pathology …): 110 mg/kg/day
- LEL (rat [7]; [23]): 343 mg/kg/day
- LOAEL (rat [7]; [23]): 343 mg/kg/day
- NEL (rat [7]; [23]): 127 mg/kg/day
- NOAEL (rat [7]; [23]): 127 mg/kg/day
- LEL (rat [7]; [24]): 343 mg/kg/day
- LOAEL (rat [7]; [24]): 343 mg/kg/day
- NEL (rat [7]; [24]): 127 mg/kg/day
- NOAEL (rat [7]; [24]): 127 mg/kg/day
- LEL (rat [8]; [25]): 1250 mg/kg/day
- LOAEL (rat [8]; [25]): 1250 mg/kg/day
- NEL (rat [8]; [25]): 600 mg/kg/day
- NOAEL (rat [8]; [25]): 600 mg/kg/day
- LEL (rat [8]; [26]): 600 mg/kg/day
- LOAEL (rat [8]; [26]): 600 mg/kg/day
- NEL (rat [8]; [26]): 100 mg/kg/day
- NOAEL (rat [8]; [26]): 100 mg/kg/day
- LOAEL (rat [9]; [27]): 470 mg/kg/day
- NEL (rat [9]; [27]): 58 mg/kg/day
- NOAEL (rat [9]; [27]): 226 mg/kg/day
- LEL (rat [9]; systemic / in life observation / clinical signs / urine, discoloration + systemic / in life observation / food consumption / food …): 226 mg/kg/day
- LEL (dog [10]; [28]): 150 mg/kg/day
- LOAEL (dog [10]; [28]): 150 mg/kg/day
- NEL (dog [10]; [29]): 50 mg/kg/day
- NOAEL (dog [10]; [29]): 50 mg/kg/day
- LEL (dog [11]; [30]): 150 mg/kg/day
- LOAEL (dog [11]; [30]): 150 mg/kg/day
- NEL (dog [11]; [31]): 50 mg/kg/day
- NOAEL (dog [11]; [31]): 50 mg/kg/day
